Test results as given in patent publication US4629737A, “Secondary amines and use in pharmaceutical compositions” (Beecham Group p.l.c., priority 1982, dated 1986).
Structures can show the parent of a compound that is named as a salt. Where two headings read alike, the source gives them in different places.

Experiments:
[1] = tested on: blood glucose; test: Hypoglycaemic activity: reduction in area under blood glucose curve after glucose load; format: in vivo, Female CFLP mice; conditions: Mus musculus
Procedure: Female CFLP mice, weighing approximately 25 g, were fasted for 24 hours prior to the study. The compounds under study were administered orally as an aqueous solution to each of 6 mice. 30 minutes later a blood sample (10 μl) was obtained from the tail for the analysis of blood glucose. Immediately after taking this blood sample, glucose (1 g/Kg body weight) was administered subcutaneously to each mouse. 6 mice were given water as a control. Blood samples were then obtained from each mouse at 30 minute intervals for 120 minutes.
Compounds that produced a significant (P<0.05) reduction of blood glucose, compared with control mice given water, at any time interval, were considered active. The area under the blood glucose curve over the 2 hour period after the administration of the glucose was calculated for each compound and compared with the value for control animals.

[2] = Effect on energy expenditure of mice; format: in vivo, Female CFLP mice; conditions: Mus musculus; for response vs control in vivo at 21 mg/kg: 21.0 mg/kg po
Procedure: Female CFLP mice, each weighing approximately 24 g were given food and water ad lib before and during the experiment. The compounds were dissolved in water by addition of one mole of hydrochloric acid per mole of compound and these solutions were administered orally to each of 12 mice. A further 12 mice were dosed orally with water. The mice were placed in boxes through which air was drawn and the oxygen content of the air leaving the boxes was measured. The energy expenditure of the mice was calculated for 21 hours after dosing from the volume of air leaving the boxes and its oxygen content, following the principles described by J. B. de V. Weir, J. Physiol. (London), 109, 1-9 (1949).

[3] = 2.5 μmol/Kg oral, 2 h after glucose 1 g/Kg s.c., vs control, read-out: % Reduction in area under Blood Glucose Curve
[4] = po, 21 h, read-out: Mean Energy Expenditure (0-21 h)
[5] = 12.5 μmol/Kg oral, 2 h after glucose 1 g/Kg s.c., vs control, read-out: % Reduction in area under Blood Glucose Curve
[6] = po, 2 h, read-out: % Reduction in area under Blood Glucose Curve
[7] = po, 3 h, read-out: Mean Energy Expenditure (0-3 h)
[8] = 25.1 mg/kg po, 0-3 h, read-out: Mean Energy Expenditure (0-3 h)
[9] = 25 μmol/Kg oral, 2 h after glucose 1 g/Kg s.c., vs control, read-out: % Reduction in area under Blood Glucose Curve

COC(CNC(C)Cc1ccc(OCCN(C)C)cc1)c1cccc(Cl)c1 (stereo not drawn) [Example 23, N-[2-(4-(2-Dimethylaminoethoxy)phenyl)-1-methylethyl]-2-methoxy-2-(3-chlorophenyl)ethanamine dihydrochloride hemihydrate]
inhibition in vivo at 2.5 µmol/kg [1, 3]: 35% | response vs control in vivo at 23.7 mg/kg [2, 4]: 130% | response vs control in vivo at 23.7 mg/kg ([2]; 23.7 mg/kg po, 0-3 h, read-out: Mean Energy Expenditure (0-3 h)): 163%

COC(CNC(C)Cc1ccc(OCCN)cc1)c1cccc(Cl)c1 (stereo not drawn) [Example 24, N-[2-(4-(2-Aminoethoxy)phenyl)-1-methylethyl]-2-methoxy-2-(3-chlorophenyl)ethanamine dihydrochloride hemihydrate]
inhibition in vivo at 12.5 µmol/kg [1, 5]: 51% | response vs control in vivo at 22.3 mg/kg [2, 4]: 128% | response vs control in vivo at 22.3 mg/kg ([2]; 22.3 mg/kg po, 0-3 h, read-out: Mean Energy Expenditure (0-3 h)): 147%

CCCOC(CNC(C)Cc1ccc(OCC(=O)OC)cc1)c1cccc(Cl)c1 (stereo not drawn) [Example 25, N-[2-(4-Carbomethoxymethoxyphenyl)-1-methylethyl]-2-^n-propoxy-2-(3-chlorophenyl)ethanamine hydrochloride]
inhibition in vivo at 12.5 µmol/kg [1, 5]: 53.5% | response vs control in vivo at 22.8 mg/kg ([2]; 22.8 mg/kg po, 0-3 h, read-out: Mean Energy Expenditure (0-3 h)): 137% | response vs control in vivo at 22.8 mg/kg ([2]; 22.8 mg/kg po, 0-21 h, read-out: Mean Energy Expenditure (0-21 h)): 105%

COC(=O)COc1ccc(CC(C)NCC(OC(C)C)c2cccc(Cl)c2)cc1 (stereo not drawn) [Example 26, N-[2-(4-Carbomethoxymethoxyphenyl)-1-methylethyl]-2-isopropoxy-2-(3-chlorophenyl)ethanamine hydrochloride]
inhibition in vivo at 2.5 µmol/kg [1, 6]: 45% | response vs control in vivo at 22.8 mg/kg [2, 7]: 122% | response vs control in vivo at 22.8 mg/kg [2, 4]: 103%

CCCOC(CNC(C)Cc1ccc(OCC(=O)NC)cc1)c1cccc(Cl)c1 (stereo not drawn) [Example 27, N-[2-(4-Methylaminocarbonylmethoxyphenyl)-1-methylethyl]-2-^n propoxy-2-(3-chlorophenyl)ethanamine dihydrochloride hemihydrate]
inhibition in vivo at 2.5 µmol/kg [1, 3]: 52% | response vs control in vivo at 25.1 mg/kg [2, 4]: 115% | response vs control in vivo at 25.1 mg/kg [2, 8]: 143%

CNC(=O)COc1ccc(CC(C)NCC(OC(C)C)c2cccc(Cl)c2)cc1 (stereo not drawn) [Example 28, N-[2-(4-Methylaminocarbonylmethoxyphenyl)-1-methylethyl]-2-isopropoxy-2-(3-chlorophenyl)ethanamine dihydrochloride hemihydrate]
inhibition in vivo at 2.5 µmol/kg [1, 3]: 55% | response vs control in vivo at 25.1 mg/kg [2, 8]: 132% | response vs control in vivo at 25.1 mg/kg ([2]; 25.1 mg/kg po, 0-21 h, read-out: Mean Energy Expenditure (0-21 h)): 113%

CNC(=O)c1ccc(CC(C)NCC(OC)c2cccc(Cl)c2)cc1 (stereo not drawn) [Example 30, N-[2-(4-N'-Methylcarboxamidophenyl)-1-methylethyl]-2-methoxy-2-(3-chlorophenyl)ethanamine hydrochloride]
inhibition in vivo at 12.5 µmol/kg [1, 5]: 26.5% | response vs control in vivo at 19.9 mg/kg [2, 4]: 115% | response vs control in vivo at 19.9 mg/kg ([2]; 19.9 mg/kg po, 0-3 h, read-out: Mean Energy Expenditure (0-3 h)): 119%

COC(CNC(C)Cc1ccc(CO)cc1)c1cccc(Cl)c1 (stereo not drawn) [Example 31, N-[2-(4-Hydroxymethylphenyl)-1-methylethyl]-2-methoxy-2-(3-chlorophenyl)ethanamine hydrochloride]
inhibition in vivo at 12.5 µmol/kg [1, 6]: 29% | response vs control in vivo at 18.5 mg/kg [2, 7]: 103% | response vs control in vivo at 18.5 mg/kg [2, 4]: 126%

CCOC(CNC(C)Cc1ccc(C(=O)OC)cc1)c1cccc(Cl)c1 (stereo not drawn) [Example 33, N-[2-(4-Carbomethoxyphenyl)-1-methylethyl]-2-ethoxy-2-(3-chlorophenyl)ethanamine hydrochloride hemihydrate]
inhibition in vivo at 25 µmol/kg [1, 9]: 52% | response vs control in vivo at 21.1 mg/kg [2, 4]: 122% | response vs control in vivo at 21.1 mg/kg ([2]; 21.1 mg/kg po, 0-3 h, read-out: Mean Energy Expenditure (0-3 h)): 148%

CCOC(CNC(C)Cc1ccc(C(=O)NC)cc1)c1cccc(Cl)c1 (stereo not drawn) [Example 34, N-[2-(4-N'-Methylcarboxamidophenyl)-1-methylethyl]-2-ethoxy-2-(3-chlorophenyl)ethanamine hydrochloride]
inhibition in vivo at 25 µmol/kg [1, 9]: 34% | response vs control in vivo at 20.6 mg/kg [2, 4]: 116% | response vs control in vivo at 20.6 mg/kg ([2]; 20.6 mg/kg po, 0-3 h, read-out: Mean Energy Expenditure (0-3 h)): 148%

CNCc1ccc(CC(C)NCC(OC)c2cccc(Cl)c2)cc1 (stereo not drawn) [Example 35, N-[2-(4-N'-Methylaminomethylphenyl)-1-methylethyl]-2-methoxy-2-(3-chlorophenyl)ethanamine dihydrochloride]
inhibition in vivo at 12.5 µmol/kg [1, 5]: 10% | response vs control in vivo at 21 mg/kg ([2]; 0-3 h, read-out: Mean Energy Expenditure (0-3 h)): 124% | response vs control in vivo at 21 mg/kg ([2]; 0-21 h, read-out: Mean Energy Expenditure (0-21 h)): 123%

COC(=O)COc1ccc(CC(C)NCC(OC)c2cc3ccccc3o2)cc1 (stereo not drawn) [Example 36, N-[2-(4-Carbomethoxymethoxyphenyl)-1-methylethyl]-2-methoxy-2-(2-benzofuranyl)ethanamine hydrochloride]
inhibition in vivo at 2.5 µmol/kg [1, 6]: 30% | response vs control in vivo at 21.6 mg/kg [2, 7]: 131% | response vs control in vivo at 21.6 mg/kg [2, 4]: 104%

CNC(=O)COc1ccc(CC(C)NCC(OC)c2cc3ccccc3o2)cc1 (stereo not drawn) [Example 37, N-[2-(4-Methylaminocarbonylmethoxyphenyl)-1-methylethyl]-2-methoxy-2-(2-benzofuranyl)ethanamine dihydrochloride]
inhibition in vivo at 1 µmol/kg [1, 6]: 26% | response vs control in vivo at 23.6 mg/kg [2, 7]: 134% | response vs control in vivo at 23.6 mg/kg [2, 4]: 106%

COc1cccc(CC(C)NCC(OC)c2cccc(Cl)c2)c1 (stereo not drawn) [Example 39, N-[2-(3-Methoxyphenyl)-1-methylethyl]-2-methoxy-2-(3-chlorophenyl)ethanamine hydrochloride]
inhibition in vivo at 25 µmol/kg [1, 6]: 15% | response vs control in vivo at 18.5 mg/kg [2, 7]: 130% | response vs control in vivo at 18.5 mg/kg [2, 4]: 103%

COC(CNC(C)Cc1ccc(SC(C)C)cc1)c1cccc(Cl)c1 (stereo not drawn) [Example 40, N-[2-(4-Isopropylthiophenyl)-1-methylethyl]-2-methoxy-2-(3-chlorophenyl)ethanamine hydrochloride]
inhibition in vivo at 12.5 µmol/kg [1, 6]: 31% | response vs control in vivo at 20.7 mg/kg [2, 7]: 128% | response vs control in vivo at 20.7 mg/kg [2, 4]: 111%

COC(CNC(C)Cc1ccc(N(C)C)cc1)c1cccc(Cl)c1 (stereo not drawn) [Example 41, N-[2-(4-Dimethylaminophenyl)-1-methylethyl]-2-methoxy-2-(3-chlorophenyl)ethanamine dihydrochloride hemihydrate]
inhibition in vivo at 12.5 µmol/kg [1, 6]: 45% | response vs control in vivo at 21.4 mg/kg [2, 7]: 107% | response vs control in vivo at 21.4 mg/kg [2, 4]: 116%

CCCCOC(CNC(C)Cc1ccc(OCC(=O)OC)cc1)c1cccc(Cl)c1 (stereo not drawn) [Example 42, N-[2-(4-Carbomethoxymethoxyphenyl)-1-methylethyl]-2-^n butoxy-2-(3-chlorophenyl)ethanamine hydrochloride]
inhibition in vivo at 5 µmol/kg ([1]; 5 μmol/Kg oral, 2 h after glucose 1 g/Kg s.c., vs control, read-out: % Reduction in area under Blood Glucose Curve): 37% | response vs control in vivo at 23.5 mg/kg [2, 4]: 114% | response vs control in vivo at 23.5 mg/kg ([2]; 23.5 mg/kg po, 0-3 h, read-out: Mean Energy Expenditure (0-3 h)): 158%

CCCCOC(CNC(C)Cc1ccc(OCC(=O)NC)cc1)c1cccc(Cl)c1 (stereo not drawn) [Example 43, N-[2-(4-Methylaminocarbonylmethoxyphenyl)-1-methylethyl]-2-^n butoxy-2-(3-chlorophenyl)ethanamine hydrochloride hemihydrate]
inhibition in vivo at 2.5 µmol/kg [1, 3]: 31% | response vs control in vivo at 24.2 mg/kg ([2]; 24.2 mg/kg po, 0-3 h, read-out: Mean Energy Expenditure (0-3 h)): 144% | response vs control in vivo at 24.2 mg/kg ([2]; 24.2 mg/kg po, 0-21 h, read-out: Mean Energy Expenditure (0-21 h)): 105%

CCCCCCOC(CNC(C)Cc1ccc(OCC(=O)OC)cc1)c1cccc(Cl)c1 (stereo not drawn) [Example 44, N-[2-(4-Carbomethoxymethoxyphenyl)-1-methylethyl]-2-^n hexyloxy-2-(3-chlorophenyl)ethanamine hydrochloride]
inhibition in vivo at 7.5 µmol/kg ([1]; 7.5 μmol/Kg oral, 2 h after glucose 1 g/Kg s.c., vs control): 34% | response vs control in vivo at 24.9 mg/kg [2, 7]: 145% | response vs control in vivo at 24.9 mg/kg ([2]; 24.9 mg/kg po, 0-21 h, read-out: Mean Energy Expenditure (0-21 h)): 101%

CNCCOc1ccc(CC(C)NCC(OC)c2cccc(C(F)(F)F)c2)cc1 (stereo not drawn) [Example 46, N-[2-(4-(2-Methylaminoethoxy)phenyl)-1-methylethyl]-2-methoxy-2-(3-trifluoromethylphenyl)ethanamine dihydrochloride]
inhibition in vivo at 5 µmol/kg [1, 6]: 20% | response vs control in vivo at 24.2 mg/kg [2, 7]: 122% | response vs control in vivo at 24.2 mg/kg [2, 4]: 104%
